Legend:
Format in all cases: in vivo, mouse
PACAP−/− mice [1] = test: Effect of haloperidol on locomotor hyperactivity in the open field; settings: haloperidol 0.2 mg/kg intraperitoneally, 20 min before 90 min test, versus vehicle
Protocol: (§1) Motor activity was quantified using an automated video-tracking system, the video image motion analyzer AXIS-90 (Neuroscience, Inc., Tokyo, Japan). A computer program was used to overlay grid lines defining 25 separate regions within a circular open field (60 cm in diameter, 30 cm deep, illuminated with white light, 100 lux). Paths taken by each mouse were stored permanently as x-y coordinate sequences, and parameters indicative of locomotor activity were assessed. Vertical activity (rearing and jumping) were also scored. In the haloperidol study, the drug was injected intraperitoneally 20 min prior to monitoring locomotor activity, which was measured for 90 min by another activity-monitoring system, Supermex (multi-channel system; Muromachi Kikai Co., Ltd., Tokyo, Japan). Subsequently, the same mice were tested for catalepsy in the bar test as previously described in Boulay, D., Depoortere, R., Oblin, A., Sanger, D. J., Schoemaker, H. & Perrault, G. (2000) Eur. J. Pharmacol. 391, 63-73.
(§2) Effects of haloperidol on locomotor activity. (A) PACAP+/+and PACAP−/− mice (n =6-7) were injected intraperitoneally with 0.2 and 2 mg/kg haloperidol or vehicle (0.5% carboxymethyl cellulose sodium) and 20 min later placed in the open field for automated measurement of locomotor parameters over a 90 min test period. (B) Subsequently, each mouse was tested for catalepsy in the bar test. […]

wild-type mice = test: Effect of haloperidol on locomotor activity in the open field; settings: haloperidol 0.2 mg/kg intraperitoneally, 20 min before 90 min test, versus vehicle
Protocol: as §1, §2

PACAP−/− mice [2] = test: Catalepsy in the bar test after haloperidol; settings: haloperidol 0.2 and 2 mg/kg intraperitoneally; PACAP−/− mice compared with wild-type mice
Protocol: as §1, §2

O=C(CCCN1CCC(O)(c2ccc(Cl)cc2)CC1)c1ccc(F)cc1 [Haloperidol, haloperidol]
reduction of hyperactivity (total locomotor activity) (PACAP−/− mice [1]): 65±10 % reduction | impairment of locomotor activity (total activity) (wild-type mice): 43±21 % reduction | cataleptogenic effect (bar test) (PACAP−/− mice [2]): quite similar to that in wild-type mice

Source: patent publication US20020162128A1, “Non-human animal deficient in function of pituitary adenylate cyclase-activating polypeptide gene” (priority 2000, published 2002)
